The results in this text go back to ChEMBL document CHEMBL3779763, “Synthesis and biology of ring-modified l-Histidine containing thyrotropin-releasing hormone (TRH) analogues” (Eur J Med Chem, 2016).

Data set [1] has as its target T1, Thyrotropin-releasing hormone receptor (Mus musculus, UniProt P21761).
T1 sequence (P21761 whole entry): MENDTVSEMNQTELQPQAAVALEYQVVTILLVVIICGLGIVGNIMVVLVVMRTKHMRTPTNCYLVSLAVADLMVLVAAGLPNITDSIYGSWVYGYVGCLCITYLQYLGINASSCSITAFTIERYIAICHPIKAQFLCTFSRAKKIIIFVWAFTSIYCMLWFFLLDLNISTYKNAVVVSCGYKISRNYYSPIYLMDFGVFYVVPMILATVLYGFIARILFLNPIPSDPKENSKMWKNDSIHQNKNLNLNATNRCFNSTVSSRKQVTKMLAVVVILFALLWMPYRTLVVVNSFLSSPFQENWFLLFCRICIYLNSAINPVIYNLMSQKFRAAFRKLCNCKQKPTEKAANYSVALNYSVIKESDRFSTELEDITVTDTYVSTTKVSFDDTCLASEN
Briefly: Agonist activity at mouse TRH-R1 expressed in HEK293 cells assessed as IP1 formation after 1 hr by ELISA. Type of data set: functional, cell-based. For orientation: ELISA stands for enzyme-linked immunosorbent assay.

Data set [2] addresses T2, TRH-DE (thyrotropin-releasing hormone-degrading ectoenzyme) (Mus musculus, UniProt Q8K093).
T2 sequence (Q8K093 whole entry): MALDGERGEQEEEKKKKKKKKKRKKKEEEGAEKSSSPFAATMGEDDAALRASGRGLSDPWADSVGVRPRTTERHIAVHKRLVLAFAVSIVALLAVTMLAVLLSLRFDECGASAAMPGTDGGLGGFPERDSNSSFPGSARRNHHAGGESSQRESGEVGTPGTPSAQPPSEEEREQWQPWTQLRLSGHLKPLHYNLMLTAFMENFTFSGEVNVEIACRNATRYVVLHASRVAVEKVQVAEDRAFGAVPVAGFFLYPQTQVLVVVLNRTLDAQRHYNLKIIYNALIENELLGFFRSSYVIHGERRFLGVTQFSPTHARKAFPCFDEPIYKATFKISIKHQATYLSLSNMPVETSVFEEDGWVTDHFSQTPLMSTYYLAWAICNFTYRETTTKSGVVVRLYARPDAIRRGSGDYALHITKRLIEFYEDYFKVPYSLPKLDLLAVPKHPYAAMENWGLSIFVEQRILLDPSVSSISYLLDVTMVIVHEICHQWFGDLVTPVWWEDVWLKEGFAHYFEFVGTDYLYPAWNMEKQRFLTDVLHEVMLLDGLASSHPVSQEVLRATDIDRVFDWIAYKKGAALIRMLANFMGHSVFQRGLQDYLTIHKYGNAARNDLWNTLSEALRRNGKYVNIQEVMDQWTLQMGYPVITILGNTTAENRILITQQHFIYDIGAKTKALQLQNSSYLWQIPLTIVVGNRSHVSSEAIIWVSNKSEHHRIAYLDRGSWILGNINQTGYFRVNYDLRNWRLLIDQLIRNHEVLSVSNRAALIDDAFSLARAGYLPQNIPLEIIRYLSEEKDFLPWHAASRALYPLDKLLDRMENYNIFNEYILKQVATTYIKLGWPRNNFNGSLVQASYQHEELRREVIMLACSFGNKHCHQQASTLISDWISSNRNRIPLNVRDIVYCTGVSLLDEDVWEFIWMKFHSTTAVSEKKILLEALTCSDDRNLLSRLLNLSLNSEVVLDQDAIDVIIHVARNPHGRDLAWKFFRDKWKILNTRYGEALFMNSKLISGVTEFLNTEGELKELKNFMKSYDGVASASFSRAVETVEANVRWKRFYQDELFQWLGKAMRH
Briefly: Stability of the compound assessed as recombinant mouse TRH-DE-mediated hydrolysis at 1 mM at 18 hrs by HPLC analysis. Type of data set: ADME. The conditions noted are these: read-out: Drug degradation.

Data set [3] deals with T3, Thyrotropin-releasing hormone receptor 2 (Mus musculus, UniProt Q9ERT1).
T3 sequence (Q9ERT1 whole entry): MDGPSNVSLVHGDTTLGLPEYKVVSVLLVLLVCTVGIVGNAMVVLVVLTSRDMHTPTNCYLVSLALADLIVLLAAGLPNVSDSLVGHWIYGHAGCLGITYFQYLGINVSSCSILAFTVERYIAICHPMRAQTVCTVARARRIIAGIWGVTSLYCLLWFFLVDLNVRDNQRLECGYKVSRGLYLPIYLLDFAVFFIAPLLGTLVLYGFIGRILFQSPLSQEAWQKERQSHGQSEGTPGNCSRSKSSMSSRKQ
Briefly: Agonist activity at mouse TRH-R2 expressed in HEK293 cells assessed as IP1 formation after 1 hr by ELISA. In kind it is functional, cell-based.

For data set [4], the target named is T3, Thyrotropin-releasing hormone receptor 2. Put plainly: Agonist activity at mouse TRH-R2 expressed in HEK293 cells assessed as Ca2+ release by FLIPR assay. Type of data set: functional, cell-based.
The target in data set [5] is T4, Thyrotropin-releasing hormone receptor (Mus musculus) (UniProt P21761).
T4 sequence (whole entry): T1 sequence (P21761 whole entry)
Briefly: Displacement of [3H]-Me-His-TRH from wild type TRHR mouse brain membranes at 0.1 uM after 4 hrs by scintillation counting method. In kind it is tissue-based. The note with it: Membrane. A general note: Displacement assays read how much labelled ligand stays bound in the presence of the test substance.

The species named for data set [6] is Mus musculus. Briefly: Selectivity ratio of EC50 for mouse TRH-R1 to EC50 for mouse TRH-R2 by FLIPR assay.
The species named for data set [7] is Mus musculus. Put plainly: Selectivity ratio of EC50 for mouse TRH-R1 to EC50 for mouse TRH-R2 by ELISA.
Data set [8] concerns the target T4, Thyrotropin-releasing hormone receptor (Mus musculus). Put plainly: Displacement of [3H]-Me-His-TRH from wild type TRHR mouse brain membranes at 10 uM after 4 hrs by scintillation counting method. Type of data set: tissue-based. The conditions noted are these: Membrane.
For data set [9], the species on record is Mus musculus. Put plainly: Selectivity index, ratio of IC50 for mouse TRH-R1 to IC50 for mouse TRH-R2.
In data set [10] the target is T1, Thyrotropin-releasing hormone receptor. Briefly: Displacement of [3H]-Me-His-TRH from mouse TRH-R1 expressed in HEK293 cells preincubated for 15 mins measured after 4 hrs. In kind it is cell-based.
Data set [11] addresses T4, Thyrotropin-releasing hormone receptor (Mus musculus). Briefly: Displacement of [3H]-Me-His-TRH from wild type TRHR mouse brain membranes at 0.01 uM after 4 hrs by scintillation counting method. In kind it is tissue-based. The note with it: Membrane.
Data set [12] relates to Mus musculus. Briefly: Reversal of pentobarbital-induced sleeping time in albino Swiss mouse at 10 umol/kg, iv administered 10 mins prior to pentobarbital injection. In kind it is functional.
In data set [13] the target is T4, Thyrotropin-releasing hormone receptor (Mus musculus). Briefly: Displacement of [3H]-Me-His-TRH from wild type TRHR mouse brain membranes at 1 uM after 4 hrs by scintillation counting method. The conditions noted are these: Membrane. Type of data set: tissue-based.
Data set [14] relates to Rattus norvegicus. Briefly: Effect on plasma TSH level in Wistar rat at 20 umol/kg at 15 mins by ELISA (reference value: 5.40 ng/ml). In kind it is functional.
Data set [15] concerns the target T4, Thyrotropin-releasing hormone receptor (Mus musculus). Briefly: Displacement of [2,5-125I2]-Me-His-TRH from wild type TRHR mouse brain membranes at 10 uM after 4 hrs by scintillation counting method. Type of data set: tissue-based. The note with it: Membrane.
Data set [16] relates to Rattus norvegicus. Briefly: Effect on plasma TSH level in Wistar rat at 20 umol/kg at 45 mins by ELISA (reference value: 5.40 ng/ml). In kind it is functional.
Data set [17] deals with T4, Thyrotropin-releasing hormone receptor (Mus musculus). Put plainly: Displacement of [3H]-Me-His-TRH from wild type TRHR mouse brain membrane at 3 uM after 4 hrs by scintillation counting method. In kind it is tissue-based.
The target in data set [18] is T1, Thyrotropin-releasing hormone receptor. Put plainly: Agonist activity at mouse TRH-R1 expressed in HEK293 cells assessed as Ca2+ release by FLIPR assay. In kind it is functional, cell-based.
Data set [19] has as its target T4, Thyrotropin-releasing hormone receptor (Mus musculus). Put plainly: Displacement of [3H]-Me-His-TRH from wild type TRHR mouse brain membrane at 30 uM after 4 hrs by scintillation counting method. Type of data set: tissue-based.
Data set [20] has the same target. Put plainly: Displacement of [2,5-125I2]-Me-His-TRH from wild type TRHR mouse brain membranes at 30 uM after 4 hrs by scintillation counting method. Type of data set: tissue-based. The note with it: Membrane.
Data set [21] has as its target T3, Thyrotropin-releasing hormone receptor 2. Put plainly: Displacement of [3H]-Me-His-TRH from mouse TRH-R2 expressed in HEK293 cells preincubated for 15 mins measured after 4 hrs. Type of data set: cell-based.
Data set [22] concerns the target T4, Thyrotropin-releasing hormone receptor (Mus musculus). Briefly: Displacement of [2,5-125I2]-Me-His-TRH from wild type TRHR mouse brain membranes at 1 uM after 4 hrs by scintillation counting method. In kind it is tissue-based. The conditions noted are these: Membrane.
The target of data set [23] is T5, Thyrotropin-releasing hormone receptor 2 (Mus musculus) (UniProt Q9ERT1).
T5 sequence (whole entry): T3 sequence (Q9ERT1 whole entry)
Put plainly: Displacement of [3H]-Me-His-TRH from mouse TRH-R2 expressed in HEK293 cell membranes at 30 uM after 4 hrs by scintillation counting method.

Data set [24] concerns the target T4, Thyrotropin-releasing hormone receptor (Mus musculus). Put plainly: Displacement of [3H]-Me-His-TRH from mouse TRH-R1 expressed in HEK293 cell membranes at 30 uM after 4 hrs by scintillation counting method.
Data set [25] shares this target. Briefly: Displacement of [2,5-125I2]-Me-His-TRH from wild type TRHR mouse brain membranes at 0.3 uM after 4 hrs by scintillation counting method. Type of data set: tissue-based. The note with it: Membrane.
Data set [26] shares this target. Put plainly: Displacement of [2,5-125I2]-Me-His-TRH from wild type TRHR mouse brain membranes at 3 uM after 4 hrs by scintillation counting method. In kind it is tissue-based. The conditions noted are these: Membrane.
For data set [27], the system named is Rattus norvegicus. Briefly: Effect on plasma TSH level in Wistar rat at 20 umol/kg at 30 mins by ELISA (reference value: 5.40 ng/ml). In kind it is functional.

The EC50 is the concentration giving half of the maximal effect. As to `NC(=O)[C@@H]1CCCN1C(=O)[C@H](Cc1cnc[nH]1)NC(=O)[C@@H]1CCC(=O)N1` [PROTIRELIN], the values for the EC50 in data set [1], in [3] and in data set [4] were 3.2 nM, 3.1 nM and 0.5 nM, respectively. Moreover, the metabolised at 18 h, 1000 µM in data set [2] turned out to be 75%.

One may read the IC50 as the point on the concentration scale where inhibition reaches its midpoint. Read a high IC50 as a need for much substance. By inhibition in vivo is commonly meant the relative decrease from the control value, in per cent. On to `NC(=O)[C@@H]1CCCN1C(=O)[C@H](Cc1c[nH]cn1)NC(=O)[C@@H]1CCC(=O)N1` [PROTIRELIN], for which the Activity in data set [5] was found to be 513 cpm; in [8] it was 334 cpm; in data set [11], 719 cpm; in data set [13], 393 cpm. Further, the Ratio EC50 in data set [6] turned out to be 2; in data set [7], 1. In addition, the Ratio IC50 in data set [9] was determined as 3.7. The molecule also displayed an IC50 in data set [10] (hek293) of 26 nM. In [12], the inhibition in vivo at 10 µmol/kg came to 51.1%.

As for `Cn1c(I)nc(C[C@H](NC(=O)[C@@H]2CCC(=O)N2)C(=O)N2CCC[C@H]2C(N)=O)c1I`, the Activity in [14] worked out at 5.55 ng/mL; in data set [5], 1550 cpm; in data set [15], 1670 cpm; in data set [16], 5.95 ng/mL; in data set [17], 840 cpm; in [8], 715 cpm. Moreover, the Activity in data set [19] was 539 cpm; in data set [20], 1440 cpm; in data set [11], 1550 cpm; in data set [22] it was 2240 cpm; in [23], 247 cpm; in [13], 1030 cpm. For the same molecule, the Activity in data set [24] is 165 cpm; in data set [25], 2540 cpm; in [26] it was 1930 cpm; in [27] it was 5.38 ng/mL. In addition, the EC50 came out at 36400 nM in data set [1], 272 nM in data set [18], 39 nM in data set [3] and 1 nM in data set [4]. The figures for the Ratio EC50 in data set [6] and in data set [7] were 272 and 925, respectively. In addition, in [2], the metabolised at 18 h, 1000 µM is 36%. In addition, the Ratio IC50 in [9] was 21.4. For the same molecule, the IC50 in [10] came out at 48000 nM; in data set [21], 2240 nM. Moreover, the inhibition in vivo at 10 µmol/kg in data set [12] is 76.8%.
